In BindingDB's records for doi:10.1016/s0960-894x(00)00030-5 (Yoshitomi Pharmaceutical Industries, 2000):

Molecular target: D(2) dopamine receptor (Homo sapiens, UniProt P14416)
Test: ChEBML_61120
Text: Binding affinity for Dopamine receptor D2 by displacement of [3H]-spiperone

Chain of D(2) dopamine receptor (P14416 whole entry): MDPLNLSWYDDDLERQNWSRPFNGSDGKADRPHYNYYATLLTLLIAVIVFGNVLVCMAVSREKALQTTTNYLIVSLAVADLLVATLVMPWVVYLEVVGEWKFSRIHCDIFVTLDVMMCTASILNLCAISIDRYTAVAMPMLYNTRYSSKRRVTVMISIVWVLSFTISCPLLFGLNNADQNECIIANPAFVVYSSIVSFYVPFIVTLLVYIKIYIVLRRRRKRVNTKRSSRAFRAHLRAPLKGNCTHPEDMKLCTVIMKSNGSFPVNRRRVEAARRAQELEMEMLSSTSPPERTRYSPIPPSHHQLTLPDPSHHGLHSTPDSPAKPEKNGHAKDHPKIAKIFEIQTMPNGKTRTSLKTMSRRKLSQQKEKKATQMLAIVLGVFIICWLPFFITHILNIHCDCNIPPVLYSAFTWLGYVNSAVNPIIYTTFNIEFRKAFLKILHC

Structure (SMILES) | Ki [nM]
CN1CCOc2c(C(=O)NC[C@H]3CCCN3CCc3ccccc3)cc(Cl)cc21 [6-Chloro-4-methyl-3,4-dihydro-2H-benzo[1,4]oxazine-8-carboxylic acid ((R)-1-phenethyl-pyrrolidin-2-ylmethyl)-amide] | 57
CN1CCOc2c(C(=O)NC[C@@H]3CCCN3CCc3ccccc3)cc(Cl)cc21 [6-Chloro-4-methyl-3,4-dihydro-2H-benzo[1,4]oxazine-8-carboxylic acid ((S)-1-phenethyl-pyrrolidin-2-ylmethyl)-amide] | 800
